{
  "source": "PubChem BioAssay (NCI)",
  "note": "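Assay format: 96-well plates, 48-hour exposure. TGI is the concentration that stops growth completely.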",
  "data": [
    {"system": "HS 578T breast", "experiment": "NCI anticancer screen, dose series, 48 h", "units": {"TGI": "µM"}, "values": [
      {"smiles": "C=C1C(=O)CC2C1CC(=O)/C(C)=C/CCC(C)(O)C2O", "note": "(stereo not drawn)", "TGI": 26.5},
      {"smiles": "N[C@@H](Cc1ccccc1)C(=O)N1CCC[C@@H]1P(=O)(Oc1ccccc1)Oc1ccccc1", "TGI": "> 100"},
      {"smiles": "O=c1[nH][nH]c(=O)n1CCCCCCn1c(=O)[nH][nH]c1=O", "TGI": "> 100"},
      {"smiles": "C[C@H](CCC(=O)O)[C@H]1CC[C@H]2[C@@H]3C(=O)C[C@@H]4C[C@H](O)CC[C@]4(C)[C@H]3C[C@H](O)[C@]12C", "TGI": 78.9},
      {"smiles": "CC(=O)NC1C(OCc2ccccc2)OC(CO)C(O)C1OCC(=O)N[C@@H](C)C(=O)N[C@H](CCC(=O)NCCCNc1c2ccccc2nc2cccc([N+](=O)[O-])c12)C(N)=O", "note": "(stereo partly drawn)", "TGI": 0.675},
      {"smiles": "O=C(O)c1ccccc1CC(Cc1ccc2c(c1)CCC2)C(=O)O", "note": "(stereo not drawn)", "TGI": "> 100"},
      {"smiles": "Cn1c(SCc2ccc(F)cc2)nnc1C12CC3CC(CC(C3)C1)C2", "TGI": 85.1},
      {"smiles": "COC(=O)/C=C\\C(C#N)(C#N)N=Cc1ccc(C)cc1", "TGI": 45.3},
      {"smiles": "CC(c1ccccc1)N1CCN(C(C)c2ccccc2)CC1", "note": "(stereo not drawn)", "TGI": "> 100"},
      {"smiles": "CCCCCC#CCOC(=O)C(=[N+]=[N-])P(=O)(c1ccccc1)c1ccccc1", "TGI": "> 10"},
      {"smiles": "COc1ccc(C(=O)/C=C/c2ccc(OCCCOc3ccc(/C=C/C(=O)c4ccc(OC)cc4)cc3)cc2)cc1", "TGI": "> 100"},
      {"smiles": "COc1ccc(N2C(=O)CC(=O)N(NC(=O)C(C)Oc3ccccc3C)C2=S)cc1", "note": "(stereo not drawn)", "TGI": "> 100"},
      {"smiles": "COc1cc(OC)cc(C(=O)CC(=O)c2cc(OC)cc(OC)c2)c1", "TGI": "> 100"},
      {"smiles": "O=C1OC(C2Cc3ccc4ccccc4c3C2=O)c2ccccc21", "note": "(stereo not drawn)", "TGI": 88.9},
      {"smiles": "C/C(=N\\N=C1/C(=O)OC(c2ccccc2)=C1C(=O)c1ccccc1)c1ccc([N+](=O)[O-])cc1", "TGI": "> 100"},
      {"smiles": "O=C(O)[C@H]1CCCN1CP(=O)(O)CN1CCC[C@@H]1C(=O)O", "TGI": "> 100"},
      {"smiles": "O=S(=O)(O)C(CO)c1ccccc1", "note": "(stereo not drawn) (tested in a mixture with another compound)", "TGI": "> 100"},
      {"smiles": "COc1ccc(C2OC(c3ccncc3)=NN2C)cc1F", "note": "(stereo not drawn)", "TGI": "> 100"},
      {"smiles": "O=C(/C=C/c1ccccc1)Oc1ccc(C(=O)/C=C/c2ccccc2)cc1", "TGI": 69.4},
      {"smiles": "COC(=O)C(Cc1ccc2c(c1)CCC2)Cc1ccc2c(c1)CCC2", "TGI": "> 100"},
      {"smiles": "NS(=O)(=O)c1ccc(NC(=S)/N=C/C2=C(O)c3ccccc3C2=O)cc1", "TGI": "> 100"},
      {"smiles": "CNc1cc2c(c3ccccc13)C(CCl)CN2C(=O)c1cc2cc(OC)c(OC)c(OC)c2[nH]1", "note": "(stereo not drawn)", "TGI": 0.0379},
      {"smiles": "O=C(O)CN1CCN2CCCCCN(CC1)CCN(CC(=O)O)CC2", "TGI": "> 100"},
      {"smiles": "C=C(C(=O)OCC)C(=O)OCC", "TGI": "> 100"},
      {"smiles": "O=c1oc2cc(O)ccc2c(O)c1C(c1ccccc1)c1c(O)c2ccc(O)cc2oc1=O", "TGI": "> 100"},
      {"smiles": "CC(C)c1cc2c(c(O)c1O)[C@@]1(C(=O)O)CCCC(C)(C)[C@@H]1CC2", "TGI": 67.8},
      {"smiles": "COC1=CC(=O)c2c(c(-c3nc(C)cs3)cn2C)C1=O", "TGI": 8.48},
      {"smiles": "Cc1c(O)nc(-n2[nH]c3c(c2=O)CCCC3)[nH]c1=O", "TGI": "> 100"},
      {"smiles": "CCOS(C)(=O)=O", "TGI": "> 100"},
      {"smiles": "CC(C)SC(=S)Sc1c(Cl)c(Cl)nc(Cl)c1Cl", "TGI": 44.7},
      {"smiles": "O=C(O)CN1CCNCCN(CC(=O)O)CCN(CC(=O)O)CCNCC1", "TGI": "> 100"},
      {"smiles": "CC(NC(=O)Cc1ccccc1)NC(=O)C(C)C(=O)Nc1ccccc1", "note": "(stereo not drawn)", "TGI": 88}
    ]},
    {"system": "HT29 colon", "experiment": "NCI anticancer screen, dose series, 48 h", "units": {"TGI": "µM"}, "values": [
      {"smiles": "CC1=CCC([C@@](C)(O)CCCC(C)(C)N=C=S)CC1", "note": "(stereo partly drawn)", "TGI": 32.9},
      {"smiles": "CCN1CN(c2ccccc2)C2(CCN(CC3COc4ccccc4O3)CC2)C1=O", "note": "(stereo not drawn)", "TGI": 46.7},
      {"smiles": "C=C1C(=O)CC2C1CC(=O)/C(C)=C/CCC(C)(O)C2O", "note": "(stereo not drawn)", "TGI": 26.9},
      {"smiles": "O=C1C=C/C(=N\\N=C(c2ccccc2)c2ccccc2)O1", "TGI": "> 10"},
      {"smiles": "N[C@@H](Cc1ccccc1)C(=O)N1CCC[C@@H]1P(=O)(Oc1ccccc1)Oc1ccccc1", "TGI": "> 100"},
      {"smiles": "O=c1[nH][nH]c(=O)n1CCCCCCn1c(=O)[nH][nH]c1=O", "TGI": "> 100"},
      {"smiles": "C[C@H](CCC(=O)O)[C@H]1CC[C@H]2[C@@H]3C(=O)C[C@@H]4C[C@H](O)CC[C@]4(C)[C@H]3C[C@H](O)[C@]12C", "TGI": "> 100"},
      {"smiles": "CC(=O)NC1C(OCc2ccccc2)OC(CO)C(O)C1OCC(=O)N[C@@H](C)C(=O)N[C@H](CCC(=O)NCCCNc1c2ccccc2nc2cccc([N+](=O)[O-])c12)C(N)=O", "note": "(stereo partly drawn)", "TGI": 0.199},
      {"smiles": "COc1ccc(-c2nc(SCC(=O)NNC(=S)Nc3ccccc3)[nH]c2-c2ccc(OC)cc2)cc1", "TGI": "> 100"},
      {"smiles": "O=C(O)c1ccccc1CC(Cc1ccc2c(c1)CCC2)C(=O)O", "note": "(stereo not drawn)", "TGI": "> 100"},
      {"smiles": "Cn1c(SCc2ccc(F)cc2)nnc1C12CC3CC(CC(C3)C1)C2", "TGI": 39.2},
      {"smiles": "COC(=O)/C=C\\C(C#N)(C#N)N=Cc1ccc(C)cc1", "TGI": 18.7},
      {"smiles": "CC(c1ccccc1)N1CCN(C(C)c2ccccc2)CC1", "note": "(stereo not drawn)", "TGI": "> 100"},
      {"smiles": "CCCCCC#CCOC(=O)C(=[N+]=[N-])P(=O)(c1ccccc1)c1ccccc1", "TGI": "> 10"},
      {"smiles": "COc1ccc(C(=O)/C=C/c2ccc(OCCCOc3ccc(/C=C/C(=O)c4ccc(OC)cc4)cc3)cc2)cc1", "TGI": "> 100"},
      {"smiles": "COc1ccc(N2C(=O)CC(=O)N(NC(=O)C(C)Oc3ccccc3C)C2=S)cc1", "note": "(stereo not drawn)", "TGI": "> 100"},
      {"smiles": "COc1ccc(C2c3cn[nH]c3CC3CCCCC32)cc1", "note": "(stereo not drawn)", "TGI": 41.4},
      {"smiles": "C/C(=N\\N=C1/C(=O)OC(c2ccccc2)=C1C(=O)c1ccccc1)c1ccc([N+](=O)[O-])cc1", "TGI": "> 100"},
      {"smiles": "O=C(O)[C@H]1CCCN1CP(=O)(O)CN1CCC[C@@H]1C(=O)O", "TGI": "> 100"},
      {"smiles": "O=S(=O)(O)C(CO)c1ccccc1", "note": "(stereo not drawn) (tested in a mixture with another compound)", "TGI": "> 100"},
      {"smiles": "O=C1c2ccccc2C(=O)N1n1c(Cc2ccc([N+](=O)[O-])cc2)n[nH]c1=O", "TGI": "> 100"}
    ]}
  ]
}
